Measurements published in patent US20260102415A1, “COMPOSITIONS COMPRISING PRODRUGS OF HYDROXAMATE-BASED COMPOUNDS AND METHODS OF MAKING AND USING SAME” (Duke University, priority 2022, published 2026).
In brackets after ≈: the same amount, converted by molar mass.

What was measured:
[1] = Maximum Tolerated 5-day Repeat dose in male CD-1 mice; format: in vivo; conditions: 250 mg/kg/Q12H (500 mg/kg/day) IP over 5 days, 5% Captisol
Protocol: Additionally, the Maximum Tolerated 5-day Repeat dose of LPC-233-Phos-Pro was tested in male CD-1 mice (n=3). LPC-233-Phos-Pro was prepared in 5% Captisol and 200 μL of solution was administered via IP injection every 12 hours (Q12H) at doses of 250 mg/kg/Q12H (500 mg/kg/day) over the course of 5 days. The mice were weighed daily to monitor animal survival and weight loss.

[2] = Maximum solubility in 5% Captisol by UV-Vis spectroscopy; format: physicochemical; conditions: aqueous with cosolvent or surfactant or cyclodextrin, thermodynamic from solid, absorption at 290 nm, triplicate, averaged
Protocol: Maximum solubility of LPC233-phosphate-ProDrug was determined using UV-Vis spectroscopy. First, a sample of LPC-233-Phos-Pro in 5% Captisol was prepared at 1 mg/mL by dissolving 0.7 mg of compound in 700 μL of 5% Captisol and sonicating for 30 minutes. The sample was then serial diluted 2-fold to generate standard solutions ranging from 0.0625-1 mg/mL. The absorption of each sample at 290 nm was determined via nanodrop, and the values were plotted to generate a linear standard curve of y=3.0336x+0.09 with r^2=0.998 (v=Abs290 nm, x=[drug]mg/mL). Next, a sample of LPC-233-Phos-Pro was prepared based on an assumed concentration of 300 mg/mL in 5% Captisol and allowed to sonicate for 45 minutes. The sample was then vortexed and centrifuged to pellet any undissolved compound. The supernatant was removed and diluted an initial 30× to a theoretical max concentration of 10 mg/mL. From here, the solution was serial diluted 2-fold up to 256×. The absorption of each dilution at 290 nm was measured via nanodrop and values were plotted to the standard curve. These preparations and measurements were performed in triplicate and averaged. The final maximum solubility of LPC-233-Phos-Pro in 5% Captisol was determined to be ˜260±6 mg/mL. […]

[3] = Vehicle (Captisol or beta-cyclodextrin) concentration needed to formulate the 100 mg/kg dose; format: physicochemical; conditions: dose level 100 mg/kg
Protocol: LPC-233 required 30-40% Captisol or beta-cyclodextrin to reach the dose level of 100 mg/kg and beyond. These concentrations of vehicle caused vehicle-related side effects and cannot be used in clinical formulations.

[4] = test system: Acinetobacter baumannii (ATCC 19606); test: Acinetobacter baumannii sepsis model in mice (survival); format: in vivo; conditions: CD-1 mice; for mice surviving during treatment and post-treatment observation periods: dose response study; for overall survival: separate experiment comparing prodrug with parent compound
Protocol: A mice model was created to test the efficacy of LPC-233-Phos-Pro in an Acinetobacter baumannii sepsis model.
Method: Overnight culture of A. baumannii 19606 was inoculated into 50 mL fresh LB with 1:100 dilution. The culture was incubated at 37° C. with vigorous shaking until OD600 reached ˜0.5. The bacteria were harvested, washed, and re-suspended in PBS pH 7.4 buffer. Each CD-1 mouse at the age of 6-7 weeks was injected with about […] Acinetobacter baumannii (ATCC 19606) in a volume of 200 μL intraperitoneally. There were ten mice in each group (five male and five female). About 2 hours post infection, 200 μL of vehicle (5% Captisol dissolved in saline), or LPC-233-Phos-Pro in 5% Captisol at specified concentrations were injected intraperitoneally. 12 hours later, 200 μL of vehicle control or LPC-233-Phos-Pro solutions at desired concentrations were administrated via intraperitoneal injections every 12 hours (Q12H) for a total of ten IP injections. The mice were monitored for an additional 10 days and the percentages of survival were recorded. The same procedure was used in a separate experiment to compare the efficacy of LPC-233 and LPC-233-Phos-Pro.

## C[C@@](O)(C(F)F)[C@H](NC(=O)c1ccc(C#CC#CC2CC2)cc1)C(=O)NOP(=O)([O-])[O-].[Na+].[Na+] [LPC-233-Phos-Pro]
[1]
  animal survival: All mice survived
  weight loss: < 10 % of initial body weight
[2]
  solubility at 45 min: ~260 mg/mL
[3]
  Captisol or beta-cyclodextrin concentration required to reach the dose level of 100 mg/kg: 5%
[4]; 30 mg/kg Q12H IP
  mice surviving during treatment and post-treatment observation periods: 90%
[4]; 100 mg/kg Q12H IP
  mice surviving during treatment and post-treatment observation periods: all mice
  overall survival: 100%
[4]; IP infection with A. baumannii 19606, IP dosing Q12H, ten injections, in 5% Captisol, dose response study 10, 30, 100 mg/kg
  fitted ED50 (survival): 5.5 mg/kg Q12H

## C[C@@](O)(C(F)F)[C@H](NC(=O)c1ccc(C#CC#CC2CC2)cc1)C(=O)NO [LPC-233, reference compound]
[2]
  solubility at 45 min: ~20 mg/mL (≈ 53.1 mM)
[3]
  Captisol or beta-cyclodextrin concentration required to reach the dose level of 100 mg/kg: 30-40%
[4]; 100 mg/kg Q12H IP
  overall survival: 70%
